# Results: US8030493B2, “Monovalent and divalent salts of N-(5-hydroxynicotinoil) -L-glutamic acid exhibiting psychotropic (antidepressant and anxiolytic), neuroprotective, geroprotective and cerebroprotective action” (Obschestvo S Ogranichennoy Otvetstvennostyu “Natsionalnaya …, priority 2006, dated 2011)
# Key:
# [1] = test system: mice SAM P 10; assay: Antidepressant activity: forced swimming in mice SAM; format: in vivo; settings: first 6 minutes of forced swimming
# Description: Exp. Gerontolol. 1997, […]. et al. Age-related deterioration in conditional avoidance task in the SAM-P/10 mouse, an animal model of spontaneous brain atrophy. Brain Res., 1993, v. 608, p. 266-272). To assess depressive condition the method of forced swimming was used (Porsolt R. D. et al., Behavioral despair in rats: a new model sensitive to antidepressant treatment. Europ. J. […] The mice were placed into cylinder 10 cm in diameter and 25 cm height. Cylinder was filled with water by 1⁄3 (27° C.). After unsuccessful attempts to get out of the water the animals have typical immovable posture, which is regarded as manifestation of “despair”.
# [2] = test system: white nondescript male mice; assay: in vivo; settings: white nondescript (outbred), mouse, ip, 2 days
# Description: The study of acute daily toxicity of Compound I was carried out on white nondescript male mice with body weight 25-28 g, which lived in habitual conditions in vivarium and received feed and water ad libitum. Single dose of Compound I was administered intraperitoneally. The animals were under observation for 2 days after the dosing. The dose levels of Compound I used in the toxicity study were as follows: 800 mg/kg, 1000 mg/kg, 1200 mg/kg, 1500 mg/kg, 1600 mg/kg. Compound I was dissolved in distilled water and administered in 0, 1 ml per 10 g of the body weight of the animal when the doses 800 mg/kg and 1000 mg/kg, and in 0.2 ml per 10 g of the body weight when the doses 1200 mg/kg, 1500 mg/kg, 1600 mg/kg were used. Control animals received distilled water in the volume 0.2 ml per 10 g of the body weight.
# Each dose group comprised 10 animals.
# [3] = test system: mice SAM P 10; assay: Anxiolytic activity: elevated criss-cross labyrinth in mice SAM P10; format: in vivo; settings: 5 minutes observation
# From the text: (Takeda T. et al. Senescence-Accelerated Mouse (SAM): A novel murine model of accelerated senescence. J. Amer. Geriatr. Soc. 1991, v. 39, p. 911-919). The animals belonging to this line are characterized by genetically determined depression and impairment of learning capacity, these symptoms intensively aggravate since 6 months of age (accelerated senescence) (Miyamoto M., Characteristics of age-related behavioral changes in senescence-accelerated mouse SAMP8 and SAMP10. Exp. Gerontolol. 1997, v. 32, p. 139-148; Shimada A. et al. Age-related deterioration in conditional avoidance task in the SAM-P/10 mouse, an animal model of spontaneous brain atrophy. Brain Res., 1993, v. 608, p. 266-272). Assessment of anxiety level of the mice was carried out under conditions of “elevated criss-cross labyrinth” (ECCL) method (Pellow S. et al. Validation of open:closed arm entries in elevated plus-maze as a measure of anxiety in the rat. Neurosci Meth J. 1985, No 14, p. 149-167; Voronina T. A. et al. “Textbook for Experimental (Preclinical Study) of novel pharmacological compounds”. Moscow, Medicina. 2005, p. 253-263). Labyrinth comprises crossed bands 5×45 cm, with two opposed compartments having vertical walls 30 cm height (closed, dark arms), and two other compartments are open, light arms. Labyrinth is situated 30 cm above the floor. Central platform […] is located at the cross of the planes. The mice were placed on the central platform with their tails directed to light arm. Time spent by the animals in open and closed arms, and the number of entering light and dark arms was registered. Total observation period comprised 5 minutes for each animal. Time spent in the open arms of the unit was considered as the measure of anxiolytic effect.
# [4] = test system: rats with amnesia; assay: Antiamnestic activity: passive avoidance response (PAR) with amnesia by maximum electric shock; format: in vivo; settings: for Time of presence of animals while PAR reproduction (seconds) in the dark chamber / Time of presence of animals while PAR reproduction (seconds) on the illuminated platform: rats with electric shock amnesia, 24 hours after learning; for Dose level with statistically significant antiamnestic effect of the same intensity: PAR, electric shock amnesia, intraperitoneally
# Description: White nondescript male rats with body weight 250-280 g were used in the experiments. Each dose level was studied in 10 animals. Control animals received equivalent volume of distilled water. Nooglutyl was used as reference agent. Study compounds were administered intraperitoneally 40 minutes before the experiment. Experiment was carried out on the standard automated unit for passive avoidance response (Passive Avoidance) supplied by Lafayette Instrument Co., (USA) (Ader et al. Retention of a passive avoidance response as a function of the intensity and duration of electric shock. Psycho Sci. 1972, v. 26, p. 125-128; Voronina T. A. et al. “Textbook for Experimental (Preclinical Study) of novel pharmacological compounds”. Moscow, Medicina. 2005, p. 253-263 and 308-320). The unit was designed as small platform situated 1 m above the floor, which was illuminated with special lamp, and dark chamber with electrode floor connected with the platform. The rat was placed on illuminated platform in front of the entry to the dark chamber with its tail directed to the entry; the animal preferred dark chamber and quickly ran into it. In the dark chamber the animal received single pain stimulus with electric current (0.45 mA) and memorized that it was dangerous to enter dark chamber. Duration of the stimulus was determined from the running out of the animal from the dark chamber. To achieve amnesia maximum electric shock was used (50 Hz, 0.2 sec), which was made through corneal electrodes immediately after learning. Electric shock caused obliteration of the memory trace. Test for reproduction of passive avoidance response (PAR) (for retention of memory trace) was performed 24 hours after learning session and electric shock. The animal was placed on illuminated platform once again, and time of the presence on illuminated platform and dangerous dark chamber (no current was conducted to the floor during reproduction of PAR).
# Control trained animals with reproduction of PAR without electric shock preferred to stay on illuminated platform. Obliteration of training with electric shock causes amnesia in the animals; as a result, the animals with short latent period enter dark chamber and stay there considerably longer than animals without amnesia (Table 2).
smiles,measurement,setting,value
"O=C([O-])CC[C@H](NC(=O)c1cncc(O)c1)C(=O)[O-].[Ca+2] [Compound I, Calcium N-(5-hydroxynicotinoyl)-L-glutamate]",Period of active behaviour,[1]; 10 mg/kg,190.00 ± 9.50 s
same,Period of active behaviour,[1]; 20 mg/kg,225.00 ± 10.97 s
same,LD16,[2],900 mg/kg
same,LD84,[2],1450 mg/kg
same,Number of entries the closed arms,[3]; 5 mg/kg,15.6 ± 2.1
same,Number of entries the opened arms,[3]; 5 mg/kg,5.7 ± 0.6
same,Time spent in the closed arms (c),[3]; 5 mg/kg,247.0 ± 6.4 c
same,Time spent in the opened arms (c),[3]; 5 mg/kg,21.1 ± 4.6 c
same,Number of entries the closed arms,[3]; 10 mg/kg,20.51 ± 3.1
same,Number of entries the opened arms,[3]; 10 mg/kg,7.7 ± 0.2
same,Time spent in the closed arms (c),[3]; 10 mg/kg,262.0 ± 22.1 c
same,Time spent in the opened arms (c),[3]; 10 mg/kg,23.9 ± 5.8 c
same,Number of entries the closed arms,[3]; 20 mg/kg,19.3 ± 2.5
same,Number of entries the opened arms,[3]; 20 mg/kg,13.0 ± 1.1
same,Time spent in the closed arms (c),[3]; 20 mg/kg,234.8 ± 8.7 c
same,Time spent in the opened arms (c),[3]; 20 mg/kg,28.4 ± 6.2 c
same,Time of presence of animals while PAR reproduction (seconds) in the dark chamber,[4]; 25 mg/kg intraperitoneally,64.2 ± 6.4 s
same,Time of presence of animals while PAR reproduction (seconds) on the illuminated platform,[4]; 25 mg/kg intraperitoneally,55.8 ± 9.3 s
same,Time of presence of animals while PAR reproduction (seconds) in the dark chamber,[4]; 50 mg/kg intraperitoneally,40.6 ± 8.3 s
same,Time of presence of animals while PAR reproduction (seconds) on the illuminated platform,[4]; 50 mg/kg intraperitoneally,79.4 ± 12.8 s
same,Dose level with statistically significant antiamnestic effect of the same intensity,[4],25 mg/kg
"O=C(O)CC[C@H](NC(=O)c1cncc(O)c1)C(=O)O [Nooglutyl, N-(5-hydroxynicotinoyl)-L-glutamic acid, reference compound]",Time of presence of animals while PAR reproduction (seconds) in the dark chamber,[4]; 25 mg/kg intraperitoneally,73.3 ± 13.4 s
same,Time of presence of animals while PAR reproduction (seconds) on the illuminated platform,[4]; 25 mg/kg intraperitoneally,46.7 ± 13.4 s
same,Time of presence of animals while PAR reproduction (seconds) in the dark chamber,[4]; 50 mg/kg intraperitoneally,65.7 ± 7.1 s
same,Time of presence of animals while PAR reproduction (seconds) on the illuminated platform,[4]; 50 mg/kg intraperitoneally,54.3 ± 10.2 s
same,Dose level with statistically significant antiamnestic effect of the same intensity,[4],50 mg/kg
